B1: OAT3 (hOAT3) (Homo sapiens) (protein)
chain: MTFSEILDRVGSMGHFQFLHVAILGLPILNMANHNLLQIFTAATPVHHCRPPHNASTGPWVLPMGPNGKPERCLRFVHPPNASLPNDTQRAMEPCLDGWVYNSTKDSIVTEWDLVCNSNKLKEMAQSIFMAGILIGGLVLGDLSDRFGRRPILTCSYLLLAASGSGAAFSPTFPIYMVFRFLCGFGISGITLSTVILNVEWVPTRMRAIMSTALGYCYTFGQFILPGLAYAIPQWRWLQLTVSIPFFVFFLSSWWTPESIRWLVLSGKSSKALKILRRVAVFNGKKEEGERLSLEELKLNLQKEISLAKAKYTASDLFRIPMLRRMTFCLSLAWFATGFAYYSLAMGVEEFGVNLYILQIIFGGVDVPAKFITILSLSYLGRHTTQAAALLLAGGAILALTFVPLDLQTVRTVLAVFGKGCLSSSFSCLFLYTSELYPTVIRQTGMGVSNLWTRVGSMVSPLVKITGEVQPFIPNIIYGITALLGGSAALFLPETLNQPLPETIEDLENWSLRAKKPKQEPEVEKASQRIPLQPHGPGLGSS
notes: full-length human OAT3 with fused Myc tag, stably expressed in COS-7 cells; ~80 kDa on blot

What was measured:
20S proteasome = test system: T1, 20S proteasome; assay: […] activity with SUC-LLVY-AMC in lysate after […] h treatment of intact COS-7 cells; assay type: cell-based; conditions: 37 °C; reversible; chymotrypsin-like activity
T1 construct: gene PSMB5; endogenous 20S proteasome of hOAT3-expressing COS-7 cells; activity read in lysate of drug-treated cells with SUC-LLVY-AMC (chymotrypsin-like, beta5); complex of 28 subunits

OAT3 (hOAT3) = target: T2, OAT3 (hOAT3) (Homo sapiens, UniProt Q8TCC7); assay: cis-inhibition of [3H]estrone sulfate uptake in hOAT3-expressing COS-7 cells, […] min; assay type: cell-based
T2 construct: gene SLC22A8; full-length human OAT3 with fused Myc tag, stably expressed in COS-7 cells; ~80 kDa on blot
T2 sequence (Q8TCC7 1-542): B1 chain

[1] = substrate: C[C@]12CC[C@@H]3c4ccc(OS(=O)(=O)O)cc4CC[C@H]3[C@@H]1CCC2=O; assay: cells, lysate or membranes; assay type: cell-based, Homo sapiens; conditions: untreated cells; PBS/Ca2+/Mg2+; 0.3-10 µM; labelled compound (3H); parental-cell uptake subtracted

Row | Molecule | % inhibition at 30 nM (20S proteasome) | also measured
1 | CC(C)C[C@H](NC(=O)[C@@H](NC(=O)c1cccc(-c2ccccc2)n1)[C@@H](C)O)B(O)O [delanzomib] | 61 (95% CI: 57 to 65) | –
2 | CC(C)C[C@H](NC(=O)CNC(=O)c1cc(Cl)ccc1Cl)B(O)O [ixazomib] | 50 (95% CI: 46 to 54) | –
3 | CCCN(CCC)S(=O)(=O)c1ccc(C(=O)O)cc1 [probenecid] | – | inhibition at 5 µM (OAT3 (hOAT3)): 40%
4 | B1 | – | Km [1]: 4.2 ± 0.3 µM
